Experimental data published in US10179790B2 (THOMAS HELLEDAYS STIFTELSE FOR MEDICINSK FORSKNING, priority 2014, dated 2019).

How the values were obtained:
[1] = system: cancer cell; assay: Cell viability assay (resazurin); format: cell-based; details: 72 h; 3 days with compound, resazurin fluorescence; cell line not named
Outline: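 Cells in DMEM GlutaMAX or line-appropriate medium are exposed to compound for 3 days at 37 °C, 5% CO2. Viability is read as resazurin fluorescence (Ex544/Em590) after 2 h incubation. In the 384-well format, cells are seeded onto 11 pre-dispensed concentrations (final DMSO <1%) and read after 3 h resazurin.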

[2] = molecular target: MTH1 (Homo sapiens, UniProt P36639); assay: MTH1 enzymatic assay and IC50 value determination (malachite green, 96- and 384-well format); format: biochemical; details: hydrolysis of dGTP (100 μM), MTH1 6 nM, pyrophosphatase-coupled malachite green, 15 minutes at 22° C.
Outline: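 MTH1 (6 nM) hydrolysed dGTP (100 μM) for 15 min at 22 °C in Tris-acetate buffer with Mg2+, DTT, Tween 20 and excess pyrophosphatase, 1% DMSO. Pi detected with malachite green at 630 nm. IC50 from nonlinear 4-parameter fit of 11–12-point dilution series.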

Row | IC50 [1] | IC50 [2] | SMILES
1 | < 0.5 µM | < 0.2 µM | CCS(=O)(=O)Nc1ccc(CCNc2cc(-c3cccc(Cl)c3C)nc(N)n2)cc1 [Example 64, N-[4-(2-{[2-amino-6-(3-chloro-2-methylphenyl)pyrimidin-4-yl]amino}ethyl)phenyl]ethane-1-sulfonamide]
2 | < 0.5 µM | < 0.2 µM | Cc1c(Cl)cccc1-c1cc(NCCNc2ncc(C(N)=O)c(C(F)(F)F)n2)nc(N)n1 [Example 159, 2-[2-[[2-amino-6-(3-chloro-2-methyl-phenyl)pyrimidin-4-yl]amino]ethylamino]-4-(trifluoromethyl)pyrimidine-5-carboxamide]
3 | < 0.5 µM | < 0.2 µM | CC(=O)Nc1ccc(NCCNc2cc(-c3cccc(Cl)c3C)nc(N)n2)cc1C [Example 189, N-[4-[2-[[2-amino-6-(3-chloro-2-methyl-phenyl)pyrimidin-4-yl]amino]ethylamino]-2-methyl-phenyl]acetamide]
4 | < 0.5 µM | < 0.2 µM | Cc1c(Cl)cccc1-c1cc(NCCc2ccc(NC(=O)NC(C)C)cc2)nc(N)n1 [Example 61, 1-[4-(2-{[2-amino-6-(3-chloro-2-methylphenyl)pyrimidin-4-yl]amino}ethyl)phenyl]-3-(propan-2-yl)urea]
